Data as given in EP0609437B1, “NOVEL SPHINGOGLYCOLIPID AND USE THEREOF” (KIRIN BEER KABUSHIKI KAISHA, priority 1991, dated 1993).
Read-outs that look alike come from different tables or passages of the source.

Columns and labels:
B16 mouse melanoma cells = assay: Anti-tumor activity against B16 mouse melanoma inoculated subcutaneously; assay type: in vivo; conditions: maximum tumor growth inhibition rate during the test period of 20 days, female BDF1 mice, 0.1 mg/kg intravenously on days 1, 5 and 9 after s.c. inoculation; for inhibition in vivo at 0.1 mg/kg: Mus musculus, iv, 480 h, read-out: TGIR (%)
Description: Anti-tumor activity against B16 mouse melanoma inoculated subcutaneously.
Experiment was carried out with the groups of 6 female BDF1 mice (6 weeks old) purchased from Japan SLC Inc., B16 mouse melanoma cells (1 × 10^6 cells/mouse) were inoculated subcutaneously in the rear region of mice, and the sample prepared in a concentration of 0.1 mg/kg was administered intravenously at a dose of 0.2 ml/20g/mouse after 1, 5 and 9 days from inoculation (the day of inoculation being set as 0 day). The volume of the tumor at the hypodermis of the rear region [(longer diameter × shorter diameter × height)/2] was measured on 8, 12, 16 and 20 days after inoculation, and the tumor growth inhibition rate (TGIR) of each sample was determined. TGIR was calculated from the following equation: TGIR (%) = (1 - T/C) × 100 [formula] wherein C represents a tumor volume of the control group and T represents a tumor volume of the group to which the sample was administered.
In this connection, respective test runs were divided by broken lines.

[1] = system: spleen cells of C57BL/6 mouse and pancreatic cells of BALB/c mouse; assay: Lymphocyte mixed culture reaction (mouse MLR), uptake of 3H-TdR; assay type: cell-based; conditions: for activity at 1 µg/mL / activity at 0.1 µg/mL / activity at 0.01 µg/mL: Mus musculus, Lymphocyte, read-out: Uptake of ^3H-TdR (% of control)
Description: Experiment was carried out with the spleen cells of C57BL/6 mouse which had been treated with mitomycin C (50 µg/ml, 30 min) as the stimulator and with the […] cells of BALB/c mouse as the responder. These […] cells were suspended to a concentration of 2 × 10^6 cells/ml with a culture medium of 10% FCS RPMI 1640, respectively. These cells (50 µl/well) and a sample (10 µl/well) were plated in a 96 well round-bottomed plate and cultured for 42 hours* under the condition of 37°C and 5% CO2. ^3H-thymidine (^3H-TdR) was added in a dose of 0.5 µCi/well. After 8 hours, the cells were harvested and subjected to the measurement of the uptake of ^3H-TdR by a liquid scintillation counter.
*The samples of the compounds 32, 33 and 34 were cultured for 4 days.

[2] = Acute toxicity, single intravenous administration; assay type: in vivo; conditions: rat, in vivo; single intravenous dose, male Crj:CD rats, observed for 7 days
Description: (§1) The compound 5 was once administered intravenously in doses of 0.1, 1.0 and 10 mg/kg to the groups of 6 male Crj:CD rats (5 weeks old), and the toxicity tests were conducted for 7 days after the administration of the compound 5.

male Crj:CD rats = assay: Acute toxicity, single intravenous administration; assay type: in vivo; conditions: 7 days
Description: as §1

[3] = 50 h, sample concentration 10^0 µg/ml, cultured for 42 hours, then 8 hours with 3H-TdR
[4] = 50 h, sample concentration 10^-1 µg/ml, cultured for 42 hours, then 8 hours with 3H-TdR
[5] = 50 h, sample concentration 10^-2 µg/ml, cultured for 42 hours, then 8 hours with 3H-TdR
[6] = sample concentration 10^-1 µg/ml, cultured for 4 days
[7] = sample concentration 10^-2 µg/ml, cultured for 4 days

`CCCCCCCCCCCCCCC[C@@H](O)[C@H](CO[C@H]1O[C@H](CO)[C@H](O)[C@H](O)[C@H]1O)NC(=O)CCCCCCCCCCCCC` [Compound 5, (2S,3R)-1-(α-D-galactopyranosyloxy)-2-tetradecanoylamino-3-octadecanol] showed an inhibition in vivo at 0.1 mg/kg (B16 mouse melanoma cells) of 92.1%, an activity at 1 µg/mL [1, 3] of 473% and an activity at 0.1 µg/mL [1, 4] of 170%. For the same molecule, the activity at 0.01 µg/mL [1, 5] was 153%, the LD50 at 168 h [2] was no less than 10 mg/kg and the lethality (male Crj:CD rats; single intravenous dose of 10 mg/kg) was “not lethal”. The autopsy findings (male Crj:CD rats; single intravenous doses of 0.1, 1.0 and 10 mg/kg) was “no abnormality was observed”.
For `CCCCCCCCCCCCCCCCCCCCCCCCCC(=O)N[C@@H](CO[C@H]1O[C@H](CO)[C@H](O)[C@H](O)[C@H]1O)[C@H](O)[C@H](O)CCCCCCCCCCCCC` [Compound 20, (2S,3S,4R)-1-(α-D-galactopyranosyloxy)-2-hexacosanoylamino-3,4-heptadecanediol], the inhibition in vivo at 0.1 mg/kg (B16 mouse melanoma cells) was 73.7%, the activity at 1 µg/mL [1, 3] was 443% and the activity at 0.1 µg/mL [1, 4] was 188%. For the same molecule, the activity at 0.01 µg/mL [1, 5] was 192%.
`CCCCCCCCCCCCCCCCCCCCCC[C@@H](O)C(=O)N[C@@H](CO[C@H]1O[C@H](CO)[C@H](O)[C@H](O)[C@H]1O)[C@H](O)[C@H](O)CCCCCCCCCCCCCC` [Compound 21, (2S,3S,4R)-1-(α-D-galactopyranosyloxy)-2-[(R)-2-hydroxytetracosanoylamino]-3,4-octadecanediol] showed an inhibition in vivo at 0.1 mg/kg (B16 mouse melanoma cells) of 57.9%, an activity at 1 µg/mL [1, 3] of 304% and an activity at 0.1 µg/mL [1, 4] of 149%. For the same molecule, the activity at 0.01 µg/mL [1, 5] was 142%.
`CCCCCCCCCCCCCCCCCCCCCC[C@@H](O)C(=O)N[C@@H](CO[C@H]1O[C@H](CO)[C@H](O)[C@H](O)[C@H]1O)[C@H](O)[C@H](O)CCCCCCCCCCC` [Compound 23, (2S,3S,4R)-1-(α-D-galactopyranosyloxy)-2-[(R)-2-hydroxytetracosanoylamino]-3,4-pentadecanediol] gave an inhibition in vivo at 0.1 mg/kg (B16 mouse melanoma cells) of 94.1%, an activity at 1 µg/mL [1, 3] of 423% and an activity at 0.1 µg/mL [1, 4] of 167%. For the same molecule, the activity at 0.01 µg/mL [1, 5] was 143%.
Molecule `CCCCCCCCCCCCCCCCCCCCCC[C@@H](O)C(=O)N[C@@H](CO[C@H]1O[C@H](CO)[C@H](O)[C@H](O)[C@H]1O)[C@H](O)[C@H](O)CCCCCCC` [Compound 24, (2S,3S,4R)-1-(α-D-galactopyranosyloxy)-2-[(R)-2-hydroxytetracosanoylamino]-3,4-undecanediol] has an inhibition in vivo at 0.1 mg/kg (B16 mouse melanoma cells) of 52.5%, an activity at 1 µg/mL [1, 3] of 416% and an activity at 0.1 µg/mL [1, 4] of 167%. For the same molecule, the activity at 0.01 µg/mL [1, 5] was 144%.
In the case of `CCCCCCCCCCCCCCCCCCCCCCCC[C@@H](O)C(=O)N[C@@H](CO[C@H]1O[C@H](CO)[C@H](O)[C@H](O)[C@H]1O)[C@H](O)[C@H](O)CCCCCCCCCCCCCC` [Compound 25, (2S,3S,4R)-1-(α-D-galactopyranosyloxy)-2-[(R)-2-hydroxyhexacosanoylamino]-3,4-octadecanediol], the inhibition in vivo at 0.1 mg/kg (B16 mouse melanoma cells) is reported as 92.8%, the activity at 1 µg/mL [1, 3] is reported as 230% and the activity at 0.1 µg/mL [1, 4] is reported as 179%. It also gave an activity at 0.01 µg/mL [1, 5] of 161%.
For `CCCCCCCCCCCCCCCCCCCCCCCC[C@@H](O)C(=O)N[C@@H](CO[C@H]1O[C@H](CO)[C@H](O)[C@H](O)[C@H]1O)[C@H](O)[C@H](O)CCCCCCCCCCCCCCC` [Compound 26, (2S,3S,4R)-1-(α-D-galactopyranosyloxy)-2-[(R)-2-hydroxyhexacosanoylamino]-3,4-nonadecanediol], the inhibition in vivo at 0.1 mg/kg (B16 mouse melanoma cells) was 72.3%, the activity at 1 µg/mL [1, 3] was 253% and the activity at 0.1 µg/mL [1, 4] was 199%. It also gave an activity at 0.01 µg/mL [1, 5] of 193%.
Molecule `CCCCCCCCCCCCCCCCCCCCCCCC[C@@H](O)C(=O)N[C@@H](CO[C@H]1O[C@H](CO)[C@H](O)[C@H](O)[C@H]1O)[C@H](O)[C@H](O)CCCCCCCCCCCCCCCC` [Compound 27, (2S,3S,4R)-1-(α-D-galactopyranosyloxy)-2-[(R)-2-hydroxyhexacosanoylamino]-3,4-icosanediol] has an inhibition in vivo at 0.1 mg/kg (B16 mouse melanoma cells) of 92.8%, an activity at 1 µg/mL [1, 3] of 257% and an activity at 0.1 µg/mL [1, 4] of 181%. For the same molecule, the activity at 0.01 µg/mL [1, 5] was 162%.
`CCCCCCCCCCCCCCCCCCCCCC[C@H](O)C(=O)N[C@@H](CO[C@H]1O[C@H](CO)[C@H](O)[C@H](O)[C@H]1O)[C@H](O)[C@H](O)CCCCCCCCCCCCC` [Compound 28, (2S,3S,4R)-1-(α-D-galactopyranosyloxy)-2-[(S)-2-hydroxytetracosanoylamino]-3,4-heptadecanediol] gave an inhibition in vivo at 0.1 mg/kg (B16 mouse melanoma cells) of 76.2%, an activity at 1 µg/mL [1, 3] of 357% and an activity at 0.1 µg/mL [1, 4] of 172%. It also gave an activity at 0.01 µg/mL [1, 5] of 141%.
`CCCCCCCC/C=C\CCCCCCCC(=O)N[C@@H](CO[C@H]1O[C@H](CO)[C@H](O)[C@H](O)[C@H]1O)[C@H](O)CCCCCCCCCCCCCCC` [Compound 29, (2S,3R)-1-(α-D-galactopyranosyloxy)-2-oleoylamino-3-octadecanol] gave an inhibition in vivo at 0.1 mg/kg (B16 mouse melanoma cells) of 79.7%, an activity at 1 µg/mL [1, 3] of 319% and an activity at 0.1 µg/mL [1, 4] of 382%. The activity at 0.01 µg/mL [1, 5] was 215%.
Molecule `CCCCCCCCCCCCCCCCCCCCCC[C@H](O)C(=O)N[C@@H](CO[C@H]1O[C@H](CO)[C@H](O)[C@H](O)[C@H]1O)[C@H](O)[C@H](O)CCCCCCCCCCCC(C)C` [Compound 30, (2S,3S,4R)-1-(α-D-galactopyranosyloxy)-2-[(S)-2-hydroxytetracosanoylamino]-16-methyl-3,4-heptadecanediol] has an inhibition in vivo at 0.1 mg/kg (B16 mouse melanoma cells) of 57.7%, an activity at 1 µg/mL [1, 3] of 385% and an activity at 0.1 µg/mL [1, 4] of 156%. For the same molecule, the activity at 0.01 µg/mL [1, 5] was 134%.
In the case of `CCCCCCCCCCCCCCCCCCCCCCCC(=O)N[C@@H](CO[C@H]1O[C@H](CO)[C@H](O)[C@H](O)[C@H]1O)[C@H](O)[C@H](O)CCCCCCCCCCCC(C)C` [Compound 31, (2S,3S,4R)-1-(α-D-galactopyranosyloxy)-16-methyl-2-tetracosanoylamino-3,4-heptadecanediol], the inhibition in vivo at 0.1 mg/kg (B16 mouse melanoma cells) is reported as 83.4%, the activity at 1 µg/mL [1, 3] is reported as 398% and the activity at 0.1 µg/mL [1, 4] is reported as 235%. It also gave an activity at 0.01 µg/mL [1, 5] of 163%.
For `CCCCCCCCCCCCCCCCCCCCCCC[C@@H](O)C(=O)N[C@@H](CO[C@H]1O[C@H](CO)[C@H](O)[C@H](O)[C@H]1O)[C@H](O)[C@H](O)CCCCCCCCCCCC(C)CC` (stereo partly drawn) [Compound 34, (2S,3S,4R)-1-(α-D-galactopyranosyloxy)-2-[(R)-2-hydroxypentacosanoylamino]-16-methyl-3,4-octadecanediol], the inhibition in vivo at 0.1 mg/kg (B16 mouse melanoma cells) was 88.9%, the activity at 0.1 µg/mL ([1]; 96 h, sample concentration 10^-1 µg/ml, cultured for 4 days) was 360% and the activity at 0.01 µg/mL ([1]; 96 h, sample concentration 10^-2 µg/ml, cultured for 4 days) was 406%.
With `CCCCCCCCCCCCC/C=C/[C@@H](O)[C@H](CO[C@H]1O[C@H](CO)[C@H](O)[C@H](O)[C@H]1O)NC(=O)CCCCCCCCCCCCC` [Compound 35, (2S,3R,4E)-1-(α-D-galactopyranosyloxy)-2-tetradecanoylamino-4-octadecen-3-ol] the inhibition in vivo at 0.1 mg/kg (B16 mouse melanoma cells) was 63%, the activity at 1 µg/mL [1, 3] was 562% and the activity at 0.1 µg/mL [1, 4] was 261%. For the same molecule, the activity at 0.01 µg/mL [1, 5] was 247%.
For “(2S,3S,4R)-1-(α-D-galactopyranosyloxy)-2-[(R)-2-hydroxytetracosanoylamino]-3,4-heptadecanediol [Compound 22]”, the “TGIR (%)” value (B16 mouse melanoma cells) was 82.4%, the “Uptake of ^3H-TdR (% of control)” value ([1]; sample concentration 10^0 µg/ml, cultured for 42 hours, then 8 hours with 3H-TdR) was 414 % of control and the “Uptake of ^3H-TdR (% of control)” value ([1]; sample concentration 10^-1 µg/ml, cultured for 42 hours, then 8 hours with 3H-TdR) was 166 % of control. The “Uptake of ^3H-TdR (% of control)” value ([1]; sample concentration 10^-2 µg/ml, cultured for 42 hours, then 8 hours with 3H-TdR) was 149 % of control.
With “(2S,3S,4R)-1-(α-D-galactopyranosyloxy)-2-[(R)-2-hydroxytetracosanoylamino]-3,4-hexadecanediol [Compound 32]” the “TGIR (%)” value (B16 mouse melanoma cells) was 73.2%, the “Uptake of ^3H-TdR (% of control)” value [1, 6] was 406 % of control and the “Uptake of ^3H-TdR (% of control)” value [1, 7] was 426 % of control.
For “(2S,3S,4R)-1-(α-D-galactopyranosyloxy)-2-[(R)-2-hydroxytricosanoylamino]-16-methyl-3,4-heptadecanediol [Compound 33]”, the “TGIR (%)” value (B16 mouse melanoma cells) was 76.5%, the “Uptake of ^3H-TdR (% of control)” value [1, 6] was 365 % of control and the “Uptake of ^3H-TdR (% of control)” value [1, 7] was 422 % of control.
